Results taken from US20230250109A1, “MACROCYCLIC ETHER CONTAINING INDOLE DERIVATIVES AS INHIBITORS OF MCL-1” (Janssen Pharmaceutica NV, priority 2020, published 2023).
Where two headings read alike, the source gives them in different places.

Tests used:
[1] = target: Myeloid Cell Leukemia 1 (Mcl-1) (Homo sapiens, UniProt Q07820); test: Terbium labeled Mcl-1 HTRF binding assay (displacement of Cy5-labeled BIM BH3 peptide); settings: 25 pM Tb-Mcl-1, 8 nM Cy5 Bim peptide, Ki=IC50/(1+[L]/Kd), [L]=8 nM, Kd=10 nM, 60 min at room temperature, read-out: Tb-MCL1 Ki
Sequence of Myeloid Cell Leukemia 1 (Mcl-1) (Q07820 whole entry): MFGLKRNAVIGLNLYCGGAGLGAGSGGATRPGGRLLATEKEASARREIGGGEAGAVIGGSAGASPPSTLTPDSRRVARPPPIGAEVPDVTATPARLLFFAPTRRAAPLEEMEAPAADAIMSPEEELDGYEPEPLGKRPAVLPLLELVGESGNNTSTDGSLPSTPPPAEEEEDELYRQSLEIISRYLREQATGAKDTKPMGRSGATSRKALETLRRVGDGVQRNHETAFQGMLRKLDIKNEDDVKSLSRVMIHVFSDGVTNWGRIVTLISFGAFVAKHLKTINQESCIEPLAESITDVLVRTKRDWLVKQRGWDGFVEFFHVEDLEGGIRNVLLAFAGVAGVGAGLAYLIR
Protocol: Terbium labeled Myeloid Cell Leukemia 1 (Mcl-1) homogeneous time-resolved fluorescence (HTRF) binding assay utilizing the BIM BH3 peptide (H2N—(C/Cy5Mal) WIAQELRRIGDEFN-OH) as the binding partner for Mcl-1.
This assay evaluated inhibition of the BH3 domain: Mcl-1 interaction by measuring the displacement of Cy5-labeled BIM BH3 peptide (H2N—(C/Cy5Mal) WIAQELRRIGDEFN-OH) in the HTRF assay format.
The following assay and stock buffers were prepared for use in the assay: (a) Stock buffer: 10 mM Tris-HCl, pH=7.5+150 mM NaCl, filtered, sterilized, and stored at 4° C.; and (b) 1× assay buffer, where the following ingredients were added fresh to stock buffer: 2 mM dithiothreitol (DTT), 0.0025% Tween-20, 0.1 mg/mL bovine serum albumin (BSA). The 1×Tb-Mcl-1+Cy5 Bim peptide solution was prepared by diluting the protein stock solution using the 1×assay buffer (b) to 25 pM Tb-Mcl-1 and 8 nM Cy5 Bim peptide.
Using the Acoustic ECHO, 100 nL of 100×test compound(s) were dispensed into individual wells of a white 384-well Perkin Elmer Proxiplate, for a final compound concentration of 1×and final DMSO concentration of 1%. Inhibitor control and neutral control (NC, 100 nL of 100% DMSO) were stamped into columns 23 and 24 of assay plate, respectively. Into each well of the plate was then dispensed 10 μL of the 1× Tb-Mcl-1+Cy5 Bim peptide solution. The plate was centrifuged with a cover plate at 1000 rpm for 1 minute, then incubated for 60 minutes at room temperature with plates covered. The TR-FRET signal was read on an BMG PHERAStar FSX MicroPlate Reader at room temperature using the HTRF optic module (HTRF: excitation: 337 nm, light source: laser, emission A: 665 nm, emission B: 620 nm, integration start: 60 μs, integration time: 400 μs).
The BMG PHERAStar FSX MicroPlate Reader was used to measure fluorescence intensity at two emission wavelengths—665 nm and 620 nm—and report relative fluorescence units (RFU) for both emissions, as well as a ratio of the emissions (665 nm/620 nm)*10,000. The RFU values were normalized to percent inhibition as follows:
35% inhibition=(((NC−IC)−(compound−IC))/(NC−IC))*100
where IC (inhibitor control, low signal)=mean signal of 1× Tb-MCl-1+Cy5 Bim peptide+ inhibitor control or 100% inhibition of Mcl-1; NC (neutral control, high signal)=mean signal 1× Tb-MCl-1+Cy5 Bim peptide with DMSO only or 0% inhibition An 11-point dose response curve was generated to determine IC50 values (using GenData) based on the following equation:
Y=Bottom+(Top−Bottom)/(1+10^((log IC50−X)*HillSlope))
where Y=% inhibition in the presence of X inhibitor concentration; Top=100% inhibition derived from the IC (mean signal of Mcl-1+ inhibitor control); Bottom=0% inhibition derived from the NC (mean signal of Mcl-1+ DMSO); Hillslope=Hill coefficient; and IC50=concentration of compound with 50% inhibition in relation to top/neutral control (NC).

[2] = system: MOLP-8 human multiple myeloma cell line; test: Caspase-Glo 3/7 apoptosis induction assay in MOLP-8 cells; type: cell-based; settings: 2 hours at 37° C., caspase-3/7 luminescence, averaged over all runs on all batches, read-out: MOLP8 Caspase-Glo AC50
From the text: MCL-1 is a regulator of apoptosis and is highly over-expressed in tumor cells that escape cell death. The assay evaluates the cellular potency of small-molecule compounds targeting regulators of the apoptosis pathway, primarily MCL-1, Bfl-1, Bcl-2, and other proteins of the Bcl-2 family. Protein-protein inhibitors disrupting the interaction of anti-apoptotic regulators with BH3-domain proteins initiate apoptosis.
The Caspase-Glo® 3/7 Assay is a luminescent assay that measures caspase-3 and -7 activities in purified enzyme preparations or cultures of adherent or suspension cells. The assay provides a proluminescent caspase-3/7 substrate, which contains the tetrapeptide sequence DEVD. This substrate is cleaved to release aminoluciferin, a substrate of luciferase used in the production of light. Addition of the single Caspase-Glo® 3/7 Reagent in an “add-mix-measure” format results in cell lysis, followed by caspase cleavage of the substrate and generation of a “glow-type” luminescent signal. This assay uses the MOLP-8 human multiple myeloma cell line, which is sensitive to MCL-1 inhibition.
• Perkin Elmer Envision • Multidrop 384 and small volume dispensing cassettes • Centrifuge • Countess automated cell counter • Countess counting chamber slides • Assay plate: ProxiPlate-384 Plus, White 384-shallow well Microplate • Sealing tape: Topseal A plus • T175 culture flask
Cell cultures were maintained between 0.2 and 2.0×10^6 cells/mL. The cells were harvested by collection in 50 mL conical tubes. The cells were then pelleted at 500 g for 5 mins before removing supernatant and resuspension in fresh pre-warmed culture medium. The cells were counted and diluted as needed.
The assay reagent was prepared by transferring the buffer solution to the substrate vial and mixing. The solution may be stored for up to 1 week at 4° C. with negligible loss of signal.
Compounds were delivered in assay-ready plates (Proxiplate) and stored at −20° C. Assays always include 1 reference compound plate containing reference compounds. The plates were spotted with 40 nL of compounds (0.5% DMSO final in cells; serial dilution; […] highest conc. 1/3 dilution, 10 doses, duplicates). The compounds were used at room temperature and 4 μL of pre-warmed media was added to all wells except column 2 and 23. The negative control was prepared by adding 1% DMSO in media. The positive control was prepared by adding the appropriate positive control compound in final concentration of […] in media. The plate was prepared by adding 4 μL negative control to column 23, 4 μL positive control to column 2 and 4 μL cell suspension to all wells in the plate. The plate with cells was then incubated at 37° C. for 2 hours. The assay signal reagent is the Caspase-Glo solution described above, and 8 μL was added to all wells. The plates were then sealed and measured after 30 minutes.
The activity of a test compound was calculated as percent change in apoptosis induction as follows: […]

Structure (SMILES) | Ki [1] | AC50 [2] | melting point | AC50 ([2]; Homo sapiens, MOLP-8, 2 h)
Cc1c2c(nn1C)C(C)OCc1cc(n(C)n1)CSc1cc(c3ccccc3c1)OCCCc1c(C(=O)O)n(C)c3c-2c(Cl)ccc13 (single isomer, unassigned) [Compound 12] | 0.036 nM | 59.4 nM |  | 
COCCOCCn1nc(C)c2c1COCc1cc(n(C)n1)CCc1cc(c3ccc(F)cc3c1)OCCCc1c(C(=O)O)n(C)c3c-2c(Cl)ccc13 (single isomer, unassigned) [Compound 17] | 0.025 nM | 7.4 nM |  | 
COCCOCCn1nc2c(c1C)-c1c(Cl)ccc3c(c(C(=O)O)n(C)c13)CCCOc1cc(cc3cc(F)ccc13)CCc1cc(nn1C)COC2 (single isomer, unassigned) [Compound 20] | 4.14 nM | 3450 nM |  | 
Cc1c2c(nn1C)COCc1cc(n(C)n1)CCc1cc(c3ccccc3c1)OCCCc1c(C(=O)O)n(C)c3c-2c(Cl)ccc13 (single isomer, unassigned) [Compound 1] | 0.047 nM | 83.3 nM |  | 
Cc1c2c(nn1C)COCc1cc(n[nH]1)CSc1cc(c3ccccc3c1)OCCCc1c(C(=O)O)n(C)c3c-2c(Cl)ccc13 (single isomer, unassigned) [Compound 13] | 0.128 nM | 411 nM |  | 
CCc1c2c(nn1C)COCc1cc(n(C)n1)CSc1cc(c3ccccc3c1)OCCCc1c(C(=O)O)n(C)c3c-2c(Cl)ccc13 (single isomer, unassigned) [Compound 8] | 8.12 nM | 5380 nM | 264.21 °C | 
COCCOCCn1nc(C)c2c1COCc1cc(n(C)n1)CCc1cc(c3ccc(F)cc3c1)OCCCc1c(C(=O)O)n(C)c3c-2c(Cl)ccc13 (single isomer, unassigned) [Compound 19] | 1.34 nM | 626 nM |  | 
Cc1c2c(nn1C)COCc1cc(n(C)n1)CSc1cc(c3ccccc3c1)OCCCc1c(C(=O)O)n(C)c3c-2c(Cl)ccc13 (single isomer, unassigned) [Compound 5] | 0.057 nM | 83.7 nM |  | 
Cc1c2c(nn1C)COCc1cc(n[nH]1)CSc1cc(c3ccccc3c1)OCCCc1c(C(=O)O)n(C)c3c-2c(Cl)ccc13 (single isomer, unassigned) [Compound 14] | 21.6 nM | 18000 nM |  | 
COCCOCCn1nc2c(c1C)-c1c(Cl)ccc3c(c(C(=O)O)n(C)c13)CCCOc1cc(cc3cc(F)ccc13)CCc1cc(nn1C)COC2 (single isomer, unassigned) [Compound 18] | 0.02 nM | 17.6 nM |  | 
Cc1c2c(nn1C)COCc1cc(n(CCN(C)C)n1)CSc1cc(c3ccccc3c1)OCCCc1c(C(=O)O)n(C)c3c-2c(Cl)ccc13 (single isomer, unassigned) [Compound 16] | 0.072 nM |  |  | 185 nM
Cc1c2c(nn1C)C(C)OCc1cc(n(C)n1)CSc1cc(c3ccccc3c1)OCCCc1c(C(=O)O)n(C)c3c-2c(Cl)ccc13 (single isomer, unassigned) [Compound 9] | 0.241 nM | 246 nM |  | 
Cc1c2c(nn1C)C(C)OCc1cc(n(C)n1)CSc1cc(c3ccccc3c1)OCCCc1c(C(=O)O)n(C)c3c-2c(Cl)ccc13 (single isomer, unassigned) [Compound 10] | 19.8 nM | 14700 nM |  | 
Cc1c2c(nn1C)COCc1cc(n(C)n1)CCc1cc(c3ccccc3c1)OCCCc1c(C(=O)O)n(C)c3c-2c(Cl)ccc13 (single isomer, unassigned) [Compound 2] | 0.444 nM | 954 nM |  | 
Cc1c2c(nn1C)COCc1cc(nn1CCN(C)C)CSc1cc(c3ccccc3c1)OCCCc1c(C(=O)O)n(C)c3c-2c(Cl)ccc13 (single isomer, unassigned) [Compound 15] | 0.111 nM |  |  | 388 nM
Cc1c2c(nn1C)C(C)OCc1cc(n(C)n1)CSc1cc(c3ccccc3c1)OCCCc1c(C(=O)O)n(C)c3c-2c(Cl)ccc13 (single isomer, unassigned) [Compound 11] | 33.1 nM | 18100 nM |  | 
Cc1c2c(nn1C)COCc1cc(n(C)n1)CSc1cc(c3ccccc3c1)OCCCc1c(C(=O)O)n(C)c3c-2c(Cl)ccc13 (single isomer, unassigned) [Compound 6] | 11.7 nM | 6640 nM |  | 
CCc1c2c(nn1C)COCc1cc(n(C)n1)CSc1cc(c3ccccc3c1)OCCCc1c(C(=O)O)n(C)c3c-2c(Cl)ccc13 (single isomer, unassigned) [Compound 7] | 0.055 nM | 83.7 nM | 269.16 °C | 
